Results on 27 compounds are retold here after patent US10053463B2 (Janssen Pharmaceutica NV, priority 2013, dated 2018).

For this assay, the target named is P2X7 (Homo sapiens (Human), UniProt Q99572). The experiment in a line: P2X7 antagonism in human peripheral blood mononuclear cells (PBMCs), IL-1β release. The note with it: P2X7; Table 3 (additional runs); 10 μM compound; read-out: PBMC 10 μM (% control). In kind it is cell-based. Here is the method: P2X7 Antagonism in Human Peripheral Blood Mononuclear Cells (PBMCs) and Human Whole Blood.
Sequence of P2X7 (Q99572 whole entry): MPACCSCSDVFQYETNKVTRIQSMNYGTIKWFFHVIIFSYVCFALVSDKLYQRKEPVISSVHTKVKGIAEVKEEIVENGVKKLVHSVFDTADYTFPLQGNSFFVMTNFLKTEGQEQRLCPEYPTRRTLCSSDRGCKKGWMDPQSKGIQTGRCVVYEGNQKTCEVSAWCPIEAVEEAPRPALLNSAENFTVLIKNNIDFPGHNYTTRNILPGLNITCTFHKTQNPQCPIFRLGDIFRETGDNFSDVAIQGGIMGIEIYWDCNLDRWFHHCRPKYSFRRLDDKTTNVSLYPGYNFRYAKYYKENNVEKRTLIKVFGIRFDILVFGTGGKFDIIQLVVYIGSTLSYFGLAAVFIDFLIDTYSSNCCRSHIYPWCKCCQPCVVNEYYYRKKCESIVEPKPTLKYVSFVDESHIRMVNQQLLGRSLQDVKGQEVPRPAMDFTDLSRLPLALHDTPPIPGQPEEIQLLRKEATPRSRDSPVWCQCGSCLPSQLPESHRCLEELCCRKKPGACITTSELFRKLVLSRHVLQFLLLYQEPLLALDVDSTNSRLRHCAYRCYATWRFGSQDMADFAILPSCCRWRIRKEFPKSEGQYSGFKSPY
Human blood was collected using a blood donor program. PBMCs were isolated from blood using a Ficoll density gradient technique. Briefly, blood was laid on Ficoll solution and centrifuged at RT for 20 minutes at 2000 rpm. The buffy layer (between red blood cells and plasma) was carefully collected by aspiration, washed with PBS and centrifuged again at 1500 rpm for 15 minutes. The resulting cell pellet was washed and plated on 96 well-plates for experiments. For the Human Whole Blood experiments, 150 μl of human blood was platted on 96 well-plates. Lipopolysaccharide (LPS) (30 ng/ml) was added to each well and incubated for 1 hour. Test compounds were then added and incubated for 30 minutes. The P2X7 agonist, 2′(3′)-O-(4-benzoylbenzoyl) adenosine 5′-triphosphate (Bz-ATP) was then added at a final concentration of 0.5 mM (PBMC) or 1 mM (blood). Cells were incubated for an additional 1.5 hours. At that point, supernatant was collected and stored for IL-1β assay using manufacturer's protocol for enzyme-linked immunosorbent assay (ELISA). Data was expressed as percent control, where control is defined as the difference in IL-1β release in LPS+Bz-ATP samples and LPS only samples. Data was plotted as response (% control) versus concentration to generate IC50 values. […] Data are analyzed and graphed on Graphpad Prism 5. For analysis, each concentration point is averaged from triplicate values and the averaged values are plotted on Graphpad Prism.
For the compound `C[C@H]1Cn2c(nnc2-c2ccn(C)n2)C(=O)N1Cc1cccc(C(F)(F)F)c1Cl` [Example 23, (6S)-7-[2-Chloro-3-(trifluoromethyl)benzyl]-6-methyl-3-(1-methyl-1H-pyrazol-3-yl)-6,7-dihydro[1,2,4]triazolo[4,3-a]pyrazin-8(5H)-one], the remaining activity at 10 µM was -7%.

For `C[C@H]1Cn2c(nnc2-c2cnn(C)c2)C(=O)N1Cc1cccc(C(F)(F)F)c1Cl` [Example 24, (6S)-7-[2-Chloro-3-(trifluoromethyl)benzyl]-6-methyl-3-(1-methyl-1H-pyrazol-4-yl)-6,7-dihydro[1,2,4]triazolo[4,3-a]pyrazin-8(5H)-one], the remaining activity at 10 µM was -0.7%.

For `C[C@H]1Cn2c(nnc2-c2cn[nH]c2)C(=O)N1Cc1cccc(C(F)(F)F)c1Cl` [Example 25, (6S)-7-[2-Chloro-3-(trifluoromethyl)benzyl]-6-methyl-3-(1H-pyrazol-4-yl)-6,7-dihydro[1,2,4]triazolo[4,3-a]pyrazin-8(5H)-one], the remaining activity at 10 µM worked out at 2.8%.

On to `Cc1cc(-c2nnc3n2C[C@H](C)N(Cc2cccc(C(F)(F)F)c2Cl)C3=O)n[nH]1` [Example 26, (6S)-7-[2-Chloro-3-(trifluoromethyl)benzyl]-6-methyl-3-(5-methyl-1H-pyrazol-3-yl)-6,7-dihydro[1,2,4]triazolo[4,3-a]pyrazin-8(5H)-one], for which the remaining activity at 10 µM is -3.7%.

`C[C@H]1Cn2c(nnc2-c2ncccn2)C(=O)N1Cc1cccc(C(F)(F)F)c1Cl` [Example 27, (6S)-7-[2-Chloro-3-(trifluoromethyl)benzyl]-6-methyl-3-pyrimidin-2-yl-6,7-dihydro[1,2,4]triazolo[4,3-a]pyrazin-8(5H)-one]: the remaining activity at 10 µM was -0.7%.

In the case of `C[C@H]1Cn2c(nnc2-c2cc[nH]n2)C(=O)N1Cc1cccc(C(F)(F)F)c1Cl` [Example 28, (6S)-7-[2-Chloro-3-(trifluoromethyl)benzyl]-6-methyl-3-(1H-pyrazol-3-yl)-6,7-dihydro[1,2,4]triazolo[4,3-a]pyrazin-8(5H)-one], the remaining activity at 10 µM was -11.7%.

As to `C[C@H]1Cn2c(nnc2-c2cccnc2)C(=O)N1Cc1cccc(C(F)(F)F)c1Cl` [Example 29, (6S)-7-[2-Chloro-3-(trifluoromethyl)benzyl]-6-methyl-3-pyridin-3-yl-6,7-dihydro[1,2,4]triazolo[4,3-a]pyrazin-8(5H)-one], the remaining activity at 10 µM is -3.4%.

On to `C[C@H]1Cn2c(nnc2-c2ccc(F)cn2)C(=O)N1Cc1cccc(C(F)(F)F)c1Cl` [Example 30, (6S)-7-[2-Chloro-3-(trifluoromethyl)benzyl]-3-(5-fluoropyridin-2-yl)-6-methyl-6,7-dihydro[1,2,4]triazolo[4,3-a]pyrazin-8(5H)-one], for which the remaining activity at 10 µM is 3.4%.

Consider `C[C@H]1Cn2c(nnc2-c2nccs2)C(=O)N1Cc1cccc(C(F)(F)F)c1Cl` [Example 31, (6S)-7-[2-Chloro-3-(trifluoromethyl)benzyl]-6-methyl-3-(1,3-thiazol-2-yl)-6,7-dihydro[1,2,4]triazolo[4,3-a]pyrazin-8(5H)-one], for which the remaining activity at 10 µM was determined as 3%.

Regarding `C[C@H]1Cn2c(nnc2-c2cscn2)C(=O)N1Cc1cccc(C(F)(F)F)c1Cl` [Example 32, (6S)-7-[2-Chloro-3-(trifluoromethyl)benzyl]-6-methyl-3-(1,3-thiazol-4-yl)-6,7-dihydro[1,2,4]triazolo[4,3-a]pyrazin-8(5H)-one], the remaining activity at 10 µM is 3.8%.

On to `C[C@H]1Cn2c(nnc2-c2ccncn2)C(=O)N1Cc1cccc(C(F)(F)F)c1Cl` [Example 33, (6S)-7-[2-Chloro-3-(trifluoromethyl)benzyl]-6-methyl-3-pyrimidin-4-yl-6,7-dihydro[1,2,4]triazolo[4,3-a]pyrazin-8(5H)-one], for which the remaining activity at 10 µM was found to be 0.9%.

With `C[C@H]1Cn2c(nnc2-c2ncc(F)cn2)C(=O)N1Cc1cccc(C(F)(F)F)c1Cl` [Example 34, (6S)-7-[2-Chloro-3-(trifluoromethyl)benzyl]-3-(5-fluoropyrimidin-2-v1)-6-methyl-6,7-dihydro[1,2,4]triazolo[4,3-a]pyrazin-8(5H)-one], the remaining activity at 10 µM came out at 0.8%.

For `COc1ccnc(-c2nnc3n2C[C@H](C)N(Cc2cccc(C(F)(F)F)c2Cl)C3=O)c1` [Example 35, (6S)-7-[2-Chloro-3-(trifluoromethyl)benzyl]-3-(4-methoxypyridin-2-yl)-6-methyl-6,7-dihydro[1,2,4]triazolo[4,3-a]pyrazin-8(5H)-one], the remaining activity at 10 µM was -3.1%.

For `Cc1nc(-c2nnc3n2C[C@H](C)N(Cc2cccc(C(F)(F)F)c2Cl)C3=O)cs1` [Example 36, (6S)-7-[2-Chloro-3-(trifluoromethyl)benzyl]-6-methyl-3-(2-methyl-1,3-thiazol-4-yl)-6,7-dihydro[1,2,4]triazolo[4,3-a]pyrazin-8(5H)-one], the remaining activity at 10 µM was determined as 2.8%.

In the case of `C[C@H]1Cn2c(nnc2-c2cncs2)C(=O)N1Cc1cccc(C(F)(F)F)c1Cl` [Example 37, (6S)-7-[2-Chloro-3-(trifluoromethyl)benzyl]-6-methyl-3-(1,3-thiazol-5-yl)-6,7-dihydro[1,2,4]triazolo[4,3-a]pyrazin-8(5H)-one], the remaining activity at 10 µM came to 9%.

As for `C[C@H]1Cn2c(nnc2-c2csc(C(F)(F)F)n2)C(=O)N1Cc1cccc(C(F)(F)F)c1Cl` [Example 38, (6S)-7-[2-Chloro-3-(trifluoromethyl)benzyl]-6-methyl-3-[2-(trifluoromethyl)-1,3-thiazol-4-yl]-6,7-dihydro[1,2,4]triazolo[4,3-a]pyrazin-8(5H)-one], the remaining activity at 10 µM turned out to be 19.8%.

Regarding `Cc1nc(C)c(-c2nnc3n2C[C@H](C)N(Cc2cccc(C(F)(F)F)c2Cl)C3=O)s1` [Example 39, (6S)-7-[2-Chloro-3-(trifluoromethyl)benzyl]-3-(2,4-dimethyl-1,3-thiazol-5-yl)-6-methyl-6,7-dihydro[1,2,4]triazolo[4,3-a]pyrazin-8(5H)-one], the remaining activity at 10 µM is 20.3%.

`Cc1ncsc1-c1nnc2n1C[C@H](C)N(Cc1cccc(C(F)(F)F)c1Cl)C2=O` [Example 40, (6S)-7-[2-Chloro-3-(trifluoromethyl)benzyl]-6-methyl-3-(4-methyl-1,3-thiazol-5-yl)-6,7-dihydro[1,2,4]triazolo[4,3-a]pyrazin-8(5H)-one]: the remaining activity at 10 µM was found to be 22.3%.

As for `C[C@H]1Cn2c(nnc2-c2ccon2)C(=O)N1Cc1cccc(C(F)(F)F)c1Cl` [Example 41, (6S)-7-[2-Chloro-3-(trifluoromethyl)benzyl]-3-isoxazol-3-yl-6-methyl-6,7-dihydro[1,2,4]triazolo[4,3-a]pyrazin-8(5H)-one], the remaining activity at 10 µM turned out to be 35%.

Turning to `C[C@H]1Cn2c(nnc2-c2ncc(Br)cn2)C(=O)N1Cc1cccc(C(F)(F)F)c1Cl` [Example 42, (6S)-3-(5-Bromopyrimidin-2-yl)-7-[2-chloro-3-(trifluoromethyl)benzyl]-6-methyl-6,7-dihydro[1,2,4]triazolo[4,3-a]pyrazin-8(5H)-one], the remaining activity at 10 µM came to 37.4%.

In the case of `C[C@H]1Cn2c(nnc2-c2cccnn2)C(=O)N1Cc1cccc(C(F)(F)F)c1Cl` [Example 44, (6S)-7-[2-Chloro-3-(trifluoromethyl)benzyl]-6-methyl-3-pyridazin-3-yl-6,7-dihydro[1,2,4]triazolo[4,3-a]pyrazin-8(5H)-one], the remaining activity at 10 µM was found to be 26%.

Consider `C[C@H]1Cn2c(nnc2-c2cncc(F)c2)C(=O)N1Cc1cccc(C(F)(F)F)c1Cl` [Example 45, (6S)-7-[2-Chloro-3-(trifluoromethyl)benzyl]-3-(5-fluoropyridin-3-yl)-6-methyl-6,7-dihydro[1,2,4]triazolo[4,3-a]pyrazin-8(5H)-one], for which the remaining activity at 10 µM was 20.1%.

Regarding `Cc1cccc(-c2nnc3n2C[C@H](C)N(Cc2cccc(C(F)(F)F)c2Cl)C3=O)n1` [Example 46, (6S)-7-[2-Chloro-3-(trifluoromethyl)benzyl]-6-methyl-3-(6-methylpyridin-2-yl)-6,7-dihydro[1,2,4]triazolo[4,3-a]pyrazin-8(5H)-one], the remaining activity at 10 µM is 2.7%.

As for `C[C@H]1Cn2c(nnc2-c2ccncc2)C(=O)N1Cc1cccc(C(F)(F)F)c1Cl` [Example 47, (6S)-7-[2-Chloro-3-(trifluoromethyl)benzyl]-6-methyl-3-pyridin-4-yl-6,7-dihydro[1,2,4]triazolo[4,3-a]pyrazin-8(5H)-one], the remaining activity at 10 µM was -1.3%.

On to `Cc1ncccc1-c1nnc2n1C[C@H](C)N(Cc1cccc(C(F)(F)F)c1Cl)C2=O` [Example 48, (6S)-7-[2-Chloro-3-(trifluoromethyl)benzyl]-6-methyl-3-(2-methylpyridin-3-yl)-6,7-dihydro[1,2,4]triazolo[4,3-a]pyrazin-8(5H)-one], for which the remaining activity at 10 µM amounted to 0%.

Turning to `C[C@H]1Cn2c(nnc2C2CCC2)C(=O)N1Cc1cccc(C(F)(F)F)c1Cl` [Example 49, (6S)-7-[2-Chloro-3-(trifluoromethyl)benzyl]-3-cyclobutyl-6-methyl-6,7-dihydro[1,2,4]triazolo[4,3-a]pyrazin-8(5H)-one], the remaining activity at 10 µM was -3.1%.

`C[C@H]1Cn2c(nnc2C2CC2)C(=O)N1Cc1cccc(C(F)(F)F)c1Cl` [Example 50, (6S)-7-[2-Chloro-3-(trifluoromethyl)benzyl]-3-cyclopropyl-6-methyl-6,7-dihydro[1,2,4]triazolo[4,3-a]pyrazin-8(5H)-one]: the remaining activity at 10 µM worked out at 8.7%.
